{
  "source": "the NIST ThermoML archive (doi:10.1016/j.fluid.2011.06.011)",
  "experiment": "refractive index (Na D-line) (dimensionless); xn = mol fraction of the nth substance listed",
  "settings": "101 kPa, Liquid, Standard Abbe refractometry",
  "note": "Numbers after ± are expanded uncertainties.",
  "data": [
    {"smiles": "C=CC(C)(O)CCC=C(C)C", "note": "(stereo not drawn) [3,7-dimethyl-1,6-octadien-3-ol] + CCO", "values": [
      {"measurement": "refractive index", "setting": "283.15 K, x1 = 0.0506", "result": "1.38013 ± 0.00032"},
      {"measurement": "refractive index", "setting": "283.15 K, x1 = 0.1008", "result": "1.39241 ± 0.00032"},
      {"measurement": "refractive index", "setting": "283.15 K, x1 = 0.1969", "result": "1.41091 ± 0.00032"},
      {"measurement": "refractive index", "setting": "283.15 K, x1 = 0.2884", "result": "1.42392 ± 0.00033"},
      {"measurement": "refractive index", "setting": "283.15 K, x1 = 0.388", "result": "1.43469 ± 0.00035"},
      {"measurement": "refractive index", "setting": "283.15 K, x1 = 0.4803", "result": "1.44248 ± 0.00037"},
      {"measurement": "refractive index", "setting": "283.15 K, x1 = 0.56", "result": "1.44799 ± 0.00038"},
      {"measurement": "refractive index", "setting": "283.15 K, x1 = 0.6838", "result": "1.45474 ± 0.00041"},
      {"measurement": "refractive index", "setting": "283.15 K, x1 = 0.7832", "result": "1.45921 ± 0.00043"},
      {"measurement": "refractive index", "setting": "283.15 K, x1 = 0.8941", "result": "1.46319 ± 0.00046"},
      {"measurement": "refractive index", "setting": "283.15 K, x1 = 0.9286", "result": "1.46443 ± 0.00047"},
      {"measurement": "refractive index", "setting": "283.15 K, x1 = 1", "result": "1.4666 ± 0.00049"},
      {"measurement": "refractive index", "setting": "298.15 K, x1 = 0.0506", "result": "1.37416 ± 0.00032"},
      {"measurement": "refractive index", "setting": "298.15 K, x1 = 0.1008", "result": "1.38626 ± 0.00032"},
      {"measurement": "refractive index", "setting": "298.15 K, x1 = 0.1969", "result": "1.40451 ± 0.00033"},
      {"measurement": "refractive index", "setting": "298.15 K, x1 = 0.2895", "result": "1.4175 ± 0.00034"},
      {"measurement": "refractive index", "setting": "298.15 K, x1 = 0.388", "result": "1.42801 ± 0.00035"},
      {"measurement": "refractive index", "setting": "298.15 K, x1 = 0.4834", "result": "1.4359 ± 0.00037"},
      {"measurement": "refractive index", "setting": "298.15 K, x1 = 0.593", "result": "1.44306 ± 0.00039"},
      {"measurement": "refractive index", "setting": "298.15 K, x1 = 0.6838", "result": "1.44779 ± 0.00041"},
      {"measurement": "refractive index", "setting": "298.15 K, x1 = 0.8438", "result": "1.45451 ± 0.00045"},
      {"measurement": "refractive index", "setting": "298.15 K, x1 = 0.8941", "result": "1.45612 ± 0.00046"},
      {"measurement": "refractive index", "setting": "298.15 K, x1 = 0.9337", "result": "1.45748 ± 0.00047"},
      {"measurement": "refractive index", "setting": "298.15 K, x1 = 1", "result": "1.45946 ± 0.00049"},
      {"measurement": "refractive index", "setting": "313.15 K, x1 = 0.0493", "result": "1.3678 ± 0.00032"},
      {"measurement": "refractive index", "setting": "313.15 K, x1 = 0.1008", "result": "1.37996 ± 0.00032"},
      {"measurement": "refractive index", "setting": "313.15 K, x1 = 0.1969", "result": "1.39788 ± 0.00033"},
      {"measurement": "refractive index", "setting": "313.15 K, x1 = 0.2895", "result": "1.41061 ± 0.00034"},
      {"measurement": "refractive index", "setting": "313.15 K, x1 = 0.3957", "result": "1.42171 ± 0.00035"},
      {"measurement": "refractive index", "setting": "313.15 K, x1 = 0.4834", "result": "1.42883 ± 0.00037"},
      {"measurement": "refractive index", "setting": "313.15 K, x1 = 0.593", "result": "1.43594 ± 0.00039"},
      {"measurement": "refractive index", "setting": "313.15 K, x1 = 0.6838", "result": "1.44061 ± 0.00041"},
      {"measurement": "refractive index", "setting": "313.15 K, x1 = 0.8438", "result": "1.44732 ± 0.00045"},
      {"measurement": "refractive index", "setting": "313.15 K, x1 = 0.8941", "result": "1.4489 ± 0.00046"},
      {"measurement": "refractive index", "setting": "313.15 K, x1 = 0.9286", "result": "1.45004 ± 0.00047"},
      {"measurement": "refractive index", "setting": "313.15 K, x1 = 1", "result": "1.45215 ± 0.00049"},
      {"measurement": "refractive index", "setting": "328.15 K, x1 = 0.0471", "result": "1.3611 ± 0.00032"},
      {"measurement": "refractive index", "setting": "328.15 K, x1 = 0.1008", "result": "1.37358 ± 0.00032"},
      {"measurement": "refractive index", "setting": "328.15 K, x1 = 0.1969", "result": "1.39102 ± 0.00033"},
      {"measurement": "refractive index", "setting": "328.15 K, x1 = 0.2895", "result": "1.4036 ± 0.00034"},
      {"measurement": "refractive index", "setting": "328.15 K, x1 = 0.3957", "result": "1.41452 ± 0.00035"},
      {"measurement": "refractive index", "setting": "328.15 K, x1 = 0.4834", "result": "1.42158 ± 0.00037"},
      {"measurement": "refractive index", "setting": "328.15 K, x1 = 0.593", "result": "1.42859 ± 0.00039"},
      {"measurement": "refractive index", "setting": "328.15 K, x1 = 0.6838", "result": "1.43327 ± 0.00041"},
      {"measurement": "refractive index", "setting": "328.15 K, x1 = 0.8438", "result": "1.43989 ± 0.00045"},
      {"measurement": "refractive index", "setting": "328.15 K, x1 = 0.8941", "result": "1.4415 ± 0.00046"},
      {"measurement": "refractive index", "setting": "328.15 K, x1 = 0.9286", "result": "1.44266 ± 0.00047"},
      {"measurement": "refractive index", "setting": "328.15 K, x1 = 1", "result": "1.44473 ± 0.00049"}
    ]}
  ]
}
